Experimental data published in patent publication US11149067B2, “Tailored cyclodepsipeptides as potent non-covalent serine protease inhibitors” (UNIVERSITÄT DUISBURG-ESSEN, priority 2017, dated 2021).

Key:
bovine pancreas trypsin = bovine pancreas trypsin (Bos taurus (Bovine), UniProt P00760); assay: Chromogenic enzyme activity assay, trypsin; type: biochemical; settings: Table 2
human HTRA2 = human HTRA2 (Homo sapiens (Human), UniProt O43464); assay: Chromogenic enzyme activity assay, HTRA2; settings: for fold gain in HTRA2 potency relative to Ahp1: compared with Ahp1
Sequence of human HTRA2 (O43464 134-458): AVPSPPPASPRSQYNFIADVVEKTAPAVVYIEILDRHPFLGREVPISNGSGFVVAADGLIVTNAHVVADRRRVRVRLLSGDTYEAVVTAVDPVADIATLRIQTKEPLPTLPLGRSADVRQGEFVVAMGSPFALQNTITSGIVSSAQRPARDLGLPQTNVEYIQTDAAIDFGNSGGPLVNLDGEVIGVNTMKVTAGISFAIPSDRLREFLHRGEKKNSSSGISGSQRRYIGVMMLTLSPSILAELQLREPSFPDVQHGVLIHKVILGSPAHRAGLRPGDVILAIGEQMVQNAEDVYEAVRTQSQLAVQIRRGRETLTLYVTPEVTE

human HTRA1 = human HTRA1 (Homo sapiens (Human), UniProt Q92743); assay: Chromogenic enzyme activity assay, HTRA1
Sequence of human HTRA1 (Q92743 158-480): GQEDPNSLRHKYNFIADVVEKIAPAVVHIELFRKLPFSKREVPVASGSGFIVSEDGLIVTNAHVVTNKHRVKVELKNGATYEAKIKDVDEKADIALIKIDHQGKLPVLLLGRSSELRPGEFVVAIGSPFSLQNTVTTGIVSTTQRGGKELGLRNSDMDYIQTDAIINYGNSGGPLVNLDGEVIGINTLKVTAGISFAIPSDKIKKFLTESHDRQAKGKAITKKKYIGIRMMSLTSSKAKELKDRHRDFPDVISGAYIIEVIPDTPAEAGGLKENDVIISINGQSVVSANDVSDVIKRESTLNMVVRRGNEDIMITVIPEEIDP

[1] = biological target: human neutrophil elastase (Homo sapiens (Human), UniProt P08246); assay: Chromogenic enzyme activity assay, elastase; type: biochemical; settings: for Ki: human neutrophil elastase
Sequence of human neutrophil elastase (P08246 30-267): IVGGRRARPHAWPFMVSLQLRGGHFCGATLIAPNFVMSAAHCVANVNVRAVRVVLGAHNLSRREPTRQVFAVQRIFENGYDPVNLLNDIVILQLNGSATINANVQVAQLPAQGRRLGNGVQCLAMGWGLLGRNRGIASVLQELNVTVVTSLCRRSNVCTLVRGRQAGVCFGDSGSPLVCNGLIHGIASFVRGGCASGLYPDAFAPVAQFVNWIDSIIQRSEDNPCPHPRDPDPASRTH

[2] = biological target: human pancreas chymotrypsin; assay: Chromogenic enzyme activity assay, chymotrypsin; type: biochemical; settings: for Ki: human pancreas chymotrypsin, Table 2
human HTRA3 = human HTRA3 (Homo sapiens (Human), UniProt P83110); assay: Chromogenic enzyme activity assay, HTRA3
Sequence of human HTRA3 (P83110 111-436): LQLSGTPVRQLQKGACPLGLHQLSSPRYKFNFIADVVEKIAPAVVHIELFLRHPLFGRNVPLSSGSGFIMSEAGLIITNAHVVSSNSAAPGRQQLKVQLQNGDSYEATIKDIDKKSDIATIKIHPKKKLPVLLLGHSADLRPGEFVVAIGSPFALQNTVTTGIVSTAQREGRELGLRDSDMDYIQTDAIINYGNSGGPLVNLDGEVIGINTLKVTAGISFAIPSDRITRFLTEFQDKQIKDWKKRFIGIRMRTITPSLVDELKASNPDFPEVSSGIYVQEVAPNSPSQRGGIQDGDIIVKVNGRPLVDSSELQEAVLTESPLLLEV

[3] = system: human bone marrow-derived stromal cells (hBMSCs); assay: HTRA1-mediated hBMSC osteogenesis, matrix mineralization by Alizarin Red S staining; type: cell-based; settings: 10 μM compound, with HTRA1 or inactive HTRA1 S328A
Method: Human BMSCs (hBMSCs) (Lonza Verviers, Belgium) were maintained in normal growth medium consisting of Dulbecco's modified eagle medium (DMEM-low glucose, with Glutamax) (Thermo Fisher Scientific, Reinach, Switzerland), supplemented with 10% fetal bovine serum (FBS) (Bioswisstec, Schaffhausen, Switzerland) and penicillin (50 units mL^−1) and streptomycin (50 μg mL^−1), and used between passage 2 and 6. The osteogenic differentiation of hBMSCs was performed as previously described in the art. Briefly, hBMSCs were seeded at 10′000 cells cm-2 in 24-well cell culture plates, and incubated for up to 14 days in osteogenic medium consisting of normal growth medium supplemented with ascorbic acid (50 μM), β-glycerophosphate (10 mM) and dexamethasone (100 nM) (all from Sigma-Aldrich, Buchs, Switzerland). Cells were replenished with fresh medium every 3-4 days. […] Mineralized matrix deposition by hBMSC-derived bone forming cells was visualized using Alizarin Red S, and the amount of staining quantified by determining the absorption at 570 nm using a multiplate reader (Infinite M200, Tecan) following extraction with 10% cetylpyridinium chloride (Sigma-Aldrich).

Sequence of bovine pancreas trypsin (P00760 24-246): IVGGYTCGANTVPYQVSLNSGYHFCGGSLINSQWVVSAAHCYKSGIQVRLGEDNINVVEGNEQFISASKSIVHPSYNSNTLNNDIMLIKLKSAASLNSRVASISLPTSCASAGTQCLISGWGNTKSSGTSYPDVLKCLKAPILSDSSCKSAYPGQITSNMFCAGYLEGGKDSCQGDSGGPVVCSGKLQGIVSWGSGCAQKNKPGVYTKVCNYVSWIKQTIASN

Q: How did the Ki (bovine pancreas trypsin) turn out when `CC(C)[C@@H]1NC(=O)[C@@H](NC(=O)[C@H](C)NC(=O)[C@H](C)NC(=O)OCc2ccccc2)[C@@H](C)OC(=O)[C@H](C(C)C)NC(=O)[C@H](Cc2ccccc2)N(C)C(=O)[C@H](Cc2ccccc2)N2C(=O)[C@H](CC[C@H]2O)NC1=O` [Ahp6] was run?
A: Its Ki is greater than 50 µM.

Q: What about the Ki (human HTRA2) of the same compound?
A: Its Ki is 2.1 ± 0.3 µM.

Q: What about the “HTRA1 inhibition, in words” value (human HTRA1) of the same compound?
A: The value was “inhibited”.

Q: What about the Ki (human HTRA1) of the same compound?
A: Its Ki is 10.3 ± 3 µM.

Q: What about the Ki ([1]; Table 2) of the same compound?
A: The Ki was 8 ± 1.8 µM.

Q: What about the Ki [2] of the same compound?
A: The Ki was greater than 50 µM.

Q: What about the Ki (human HTRA3) of the same compound?
A: The Ki was greater than 50 µM.

Q: Which results are given for `CC(C)C[C@H]1C(=O)N(C)[C@@H](Cc2ccccc2)C(=O)N[C@@H](C(C)C)C(=O)O[C@H](C)[C@H](NC(=O)[C@H](C)NC(=O)[C@H](C)NC(=O)OCc2ccccc2)C(=O)N[C@@H](Cc2ccccc2)C(=O)N[C@H]2CC[C@@H](O)N1C2=O` [Ahp2]?
A: HTRA2 inhibition, in words (human HTRA2): significantly reduced; HTRA1 inhibition, in words (human HTRA1): significantly reduced; elastase inhibition, in words [1]: significantly reduced; chymotrypsin inhibition, in words [2]: enhanced chymotrypsin inhibition; Ki [2]: 0.37 ± 0.08 µM; HTRA3 inhibition, in words (human HTRA3): significantly reduced

Q: Which “HTRA2 inhibition, in words” value (human HTRA2) does the source give for `CC(C)C[C@H]1C(=O)N(C)[C@@H](Cc2ccccc2)C(=O)N[C@@H](C(C)C)C(=O)O[C@H](C(C)C)[C@H](NC(=O)[C@H](C)NC(=O)CCc2ccccc2)C(=O)N[C@@H](C(C)C)C(=O)N[C@H]2CC[C@@H](O)N1C2=O` [Ahp11] here?
A: Its value is “moderate inhibition”.

Q: And the “HTRA3 inhibition, in words” value (human HTRA3)?
A: The value was “moderate inhibition”.

Q: Which Ki (human HTRA2) does the source give for `CC(C)C[C@H]1C(=O)N(C)[C@@H](Cc2ccccc2)C(=O)N[C@@H](C(C)C)C(=O)O[C@H](C)[C@H](NC(=O)[C@H](C)NC(=O)[C@H](C)NC(=O)OCc2ccccc2)C(=O)N[C@@H](C(C)(C)C)C(=O)N[C@H]2CC[C@@H](O)N1C2=O` [Ahp20] here?
A: Its Ki is greater than 50 µM.

Q: And the Ki (human HTRA1)?
A: The Ki was greater than 50 µM.

Q: What about the Ki ([1]; Table 3) of the same compound?
A: Its Ki is 4.32 µM.

Q: What about the Ki (human HTRA3) of the same compound?
A: The Ki was 8.3 µM.

Q: With `CC(C)C[C@H]1C(=O)N(C)[C@@H](C)C(=O)N[C@@H](C(C)C)C(=O)O[C@H](C)[C@H](NC(=O)[C@H](C)NC(=O)[C@H](C)NC(=O)OCc2ccccc2)C(=O)N[C@@H](C(C)C)C(=O)N[C@H]2CC[C@@H](O)N1C2=O` [Ahp7] as the compound, how does the Ki (bovine pancreas trypsin) read?
A: The Ki was greater than 50 µM.

Q: And the “elastase inhibition, in words” value [1]?
A: The value was “low μM or even sub-μM”.

Q: And the Ki [2]?
A: The Ki was greater than 50 µM.

Q: What does the source list for `CC(C)C[C@H]1C(=O)N(C)[C@@H](Cc2ccccc2)C(=O)N[C@@H](Cc2ccccc2)C(=O)O[C@H](C)[C@H](NC(=O)[C@H](C)NC(=O)[C@H](C)NC(=O)OCc2ccccc2)C(=O)N[C@@H](C(C)C)C(=O)N[C@H]2CC[C@@H](O)N1C2=O` [Ahp8]?
A: Ki (bovine pancreas trypsin): > 50 µM; Ki (human HTRA2): 2.3 ± 0.2 µM; Ki (human HTRA1): > 50 µM; Ki ([1]; Table 2): 0.32 ± 0.05 µM; Ki [2]: > 50 µM; HTRA3 inhibition, in words (human HTRA3): inhibited; Ki (human HTRA3): 9.5 ± 0.9 µM

Q: With `CC(C)C[C@H]1C(=O)N(C)[C@@H](Cc2ccccc2)C(=O)N[C@@H](C(C)C)C(=O)O[C@H](C)[C@H](NC(=O)[C@H](C)NC(=O)[C@H](C)NC(=O)OCc2ccccc2)C(=O)N[C@@H](C(C)C)C(=O)N[C@H]2CC[C@@H](O)N1C2=O` [Ahp1] as the compound, how does the Ki (bovine pancreas trypsin) read?
A: The Ki was greater than 50 µM.

Q: What about the “HTRA1 inhibition, in words” value (human HTRA1) of the same compound?
A: Its value is “inhibited”.

Q: And the Ki [2]?
A: Its Ki is greater than 50 µM.

Q: What about the “HTRA3 inhibition, in words” value (human HTRA3) of the same compound?
A: Its value is “inhibited”.

Q: How did the Ki (bovine pancreas trypsin) turn out when `CC(C)C[C@H]1C(=O)N(C)[C@@H](Cc2ccccc2)C(=O)N[C@@H](C(C)C)C(=O)O[C@H](c2ccccc2)[C@H](NC(=O)[C@H](C)NC(=O)[C@H](C)NC(=O)OCc2ccccc2)C(=O)N[C@@H](C(C)C)C(=O)N[C@H]2CC[C@@H](O)N1C2=O` [Ahp3] was run?
A: Its Ki is greater than 50 µM.

Q: What about the Ki (human HTRA2) of the same compound?
A: The Ki was 0.27 ± 0.07 µM.

Q: And the Ki (human HTRA1)?
A: Its Ki is greater than 50 µM.

Q: And the Ki ([1]; Table 2)?
A: Its Ki is 0.21 ± 0.06 µM.

Q: What about the Ki [2] of the same compound?
A: The Ki was greater than 50 µM.

Q: And the “HTRA3 inhibition, in words” value (human HTRA3)?
A: The value was “inhibited”.

Q: What about the Ki (human HTRA3) of the same compound?
A: Its Ki is 3.1 ± 0.6 µM.

Q: `CC(C)C[C@H]1C(=O)N(C)[C@@H](Cc2ccccc2)C(=O)N[C@@H](C(C)C)C(=O)O[C@H](C)[C@H](NC(=O)[C@H](C)NC(=O)[C@H](C)NC(=O)OCc2ccccc2)C(=O)N[C@@H](C2CC2)C(=O)N[C@H]2CC[C@@H](O)N1C2=O` [Ahp19] was tested. Which “HTRA2 inhibition, in words” value (human HTRA2) did it give?
A: Its value is “enhanced inhibitory activity”.

Q: What about the Ki (human HTRA2) of the same compound?
A: Its Ki is 1.11 µM.

Q: What about the “HTRA1 inhibition, in words” value (human HTRA1) of the same compound?
A: Its value is “enhanced inhibitory activity”.

Q: And the Ki (human HTRA1)?
A: Its Ki is 1.24 µM.

Q: And the Ki ([1]; Table 3)?
A: Its Ki is 1.93 µM.

Q: And the “HTRA3 inhibition, in words” value (human HTRA3)?
A: Its value is “enhanced inhibitory activity”.

Q: And the Ki (human HTRA3)?
A: The Ki was 0.74 µM.

Q: How did the Ki (bovine pancreas trypsin) turn out when `CC(C)C[C@H]1C(=O)N(C)[C@@H](Cc2ccccc2)C(=O)N[C@@H](C(C)C)C(=O)O[C@H](C)[C@H](NC(=O)[C@H](Cc2ccccc2)NC(=O)[C@H](C)NC(=O)OCc2ccccc2)C(=O)N[C@@H](C(C)C)C(=O)N[C@H]2CC[C@@H](O)N1C2=O` [Ahp4] was run?
A: The Ki was greater than 50 µM.

Q: And the “HTRA2 inhibition, in words” value (human HTRA2)?
A: The value was “sub-μM inhibition potencies”.

Q: And the Ki (human HTRA2)?
A: The Ki was 0.49 ± 0.11 µM.

Q: And the “fold gain in HTRA2 potency relative to Ahp1” value (human HTRA2)?
A: The value was “more than ten-fold”.

Q: What about the Ki (human HTRA1) of the same compound?
A: Its Ki is greater than 50 µM.

Q: And the Ki ([1]; Table 2)?
A: Its Ki is 0.33 ± 0.06 µM.

Q: What about the Ki [2] of the same compound?
A: Its Ki is greater than 50 µM.

Q: What about the Ki (human HTRA3) of the same compound?
A: Its Ki is greater than 50 µM.

Q: How did the “HTRA2 inhibition, in words” value (human HTRA2) turn out when `CC(C)C[C@@H]1NC(=O)[C@@H](NC(=O)[C@H](C)NC(=O)[C@H](C)NC(=O)OCc2ccccc2)[C@@H](C)OC(=O)[C@H](C(C)C)NC(=O)[C@H](Cc2ccccc2)N(C)C(=O)[C@H](CC(C)C)N2C(=O)[C@H](CC[C@H]2O)NC1=O` [Ahp9] was run?
A: Its value is “slightly better HTRA2 inhibitory properties than Ahp1”.

Q: `CC[C@@H]1NC(=O)[C@@H](NC(=O)[C@H](C)NC(=O)[C@H](C)NC(=O)OCc2ccccc2)[C@@H](C)OC(=O)[C@H](C(C)C)NC(=O)[C@H](Cc2ccccc2)N(C)C(=O)[C@H](CC(C)C)N2C(=O)[C@H](CC[C@H]2O)NC1=O` [Ahp14] was tested. Which “HTRA2 inhibition, in words” value (human HTRA2) did it give?
A: Its value is “enhanced inhibitory activity”.

Q: What about the “HTRA1 inhibition, in words” value (human HTRA1) of the same compound?
A: The value was “enhanced inhibitory activity”.

Q: What about the “HTRA3 inhibition, in words” value (human HTRA3) of the same compound?
A: The value was “enhanced inhibitory activity”.

Q: What does the source list for `CC(C)C[C@H]1C(=O)N(C)[C@@H](Cc2ccccc2)C(=O)N[C@@H](C(C)C)C(=O)O[C@H](C)[C@H](NC(=O)[C@H](C)NC(=O)[C@H](C)NC(=O)OCc2ccccc2)C(=O)N[C@@H](C)C(=O)N[C@H]2CC[C@@H](O)N1C2=O` [Ahp13]?
A: HTRA2 inhibition, in words (human HTRA2): enhanced inhibitory activity; HTRA1 inhibition, in words (human HTRA1): enhanced inhibitory activity; HTRA3 inhibition, in words (human HTRA3): enhanced inhibitory activity

Q: How did the Ki (bovine pancreas trypsin) turn out when `CC(C)C[C@H]1C(=O)N(C)[C@@H](Cc2ccccc2)C(=O)N[C@@H](C(C)C)C(=O)O[C@H](C(C)C)[C@H](NC(=O)[C@H](C)NC(=O)[C@H](C)NC(=O)OCc2ccccc2)C(=O)N[C@@H](C(C)C)C(=O)N[C@H]2CC[C@@H](O)N1C2=O` [Ahp10] was run?
A: The Ki was greater than 50 µM.

Q: And the “HTRA2 inhibition, in words” value (human HTRA2)?
A: Its value is “sub-μM Ki”.

Q: What about the “fold gain in HTRA2 potency relative to Ahp1” value (human HTRA2) of the same compound?
A: Its value is 15 fold.

Q: And the “HTRA1 inhibition, in words” value (human HTRA1)?
A: The value was “lowered the Ki”.

Q: What about the “elastase inhibition, in words” value [1] of the same compound?
A: Its value is “lowered the Ki”.

Q: What about the Ki [2] of the same compound?
A: The Ki was greater than 50 µM.

Q: And the “inhibition of HTRA1-mediated hBMSC osteogenesis (matrix mineralization)” value [3]?
A: Its value is “significantly inhibited”.
